Where a name gives a salt, the structure may show the parent alone. Each block holds one molecule with its values, some of them ahead of it.
Assays:
[1] = Hygroscopicity (25° C.); type: physicochemical; details: up to 80% RH
[2] = Solubility in water of the salt forms of Compound 1; type: physicochemical; details: for Native pH: pH of the aqueous solubility sample
[3] = Chemical and physical stability at 40° C./75% relative humidity; type: physicochemical; details: 6 Months at 40° C./75% relative humidity (RH)
[4] = target: human c-Met (Homo sapiens, UniProt P08581); assay: biochemical
Chain of human c-Met (P08581 956-1390 limits assumed): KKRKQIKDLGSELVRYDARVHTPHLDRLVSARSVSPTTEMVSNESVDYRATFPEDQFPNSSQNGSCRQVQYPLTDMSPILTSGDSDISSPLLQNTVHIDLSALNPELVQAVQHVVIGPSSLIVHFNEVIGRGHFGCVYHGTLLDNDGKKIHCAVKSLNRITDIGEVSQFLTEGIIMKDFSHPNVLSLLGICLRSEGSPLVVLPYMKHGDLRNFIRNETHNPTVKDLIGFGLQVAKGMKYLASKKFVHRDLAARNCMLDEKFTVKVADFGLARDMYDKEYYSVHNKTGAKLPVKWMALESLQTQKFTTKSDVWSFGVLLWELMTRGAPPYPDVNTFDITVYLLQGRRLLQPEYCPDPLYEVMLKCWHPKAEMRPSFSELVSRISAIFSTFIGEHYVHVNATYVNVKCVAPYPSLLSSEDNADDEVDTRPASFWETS
Description: The procedure for determining the potency of a compound to inhibit c-Met kinase comprises the following steps: • 1. Prepare 3-fold serial diluted compound solutions in 100% dimethyl sulfoxide (DMSO) at 20× of the desired final concentrations in a 96 well plate. • 2. […] In a black assay plate, add 2.5 μl of compound solution (or DMSO) and 37.5 μl of master reaction mix per well. Initiate the kinase reaction by adding 10 μl of 0.25 mM MgATP per well. Allow the reactions to proceed for 80 min at room temperature. The final conditions for the reaction are 0.2 nM c-Met, 0.5 μM substrate, 50 μM MgATP, 5 mM MgCl2, 100 mM NaCl, 2 mM DTT, 0.1 mg/ml BSA, 50 mM Tris (pH 7.4) and 5% DMSO. • 4. […] Read HTRF signals on a Victor reader (PerkinElmer) in HTRF mode after 60 min. • 6.

[5] = listed as Crystalline Sodium salt, sodium salt dihydrate
[6] = listed as Crystalline potassium salt, potassium salt monohydrate

Hygroscopicity (25° C.) [1, 5]: 0.14% up | Native pH [2, 5]: pH = 10.5 | Solubility in water [2, 5]: >400 mg/mL | chemical and physical stability [3]: chemically and physically stable
Structure (SMILES): CN(C[C@@H]1COCCO1)S(=O)(=O)Nc1ccc2ccc3ncc(-c4cnn(C)c4)cc3c(=O)c2c1 [Compound 1 sodium salt dihydrate, N-[(2R)-1,4-dioxan-2-ylmethyl]-N-methyl-N′-[3-(1-methyl-1H-pyrazol-4-yl)-5-oxo-5H-benzo[4,5]cyclohepta[1,2-b]pyridin-7-yl]sulfamide sodium salt dihydrate]

Hygroscopicity (25° C.) [1, 6]: 0.81% up | Native pH [2, 6]: pH = 10.7 | Solubility in water [2, 6]: >170 mg/mL
Structure (SMILES): CN(C[C@@H]1COCCO1)S(=O)(=O)Nc1ccc2ccc3ncc(-c4cnn(C)c4)cc3c(=O)c2c1 [Compound 1 potassium salt monohydrate, N-[(2R)-1,4-dioxan-2-ylmethyl]-N-methyl-N′-[3-(1-methyl-1H-pyrazol-4-yl)-5-oxo-5H-benzo[4,5]cyclohepta[1,2-b]pyridin-7-yl]sulfamide potassium salt monohydrate]

IC50 [4]: ≥ 50 µM | Hygroscopicity (25° C.) ([1]; listed as Free Acid): 0.4% up to | Solubility in water ([2]; listed as Free Acid): 0.003 mg/mL
Structure (SMILES): CN(C[C@@H]1COCCO1)S(=O)(=O)Nc1ccc2ccc3ncc(-c4cnn(C)c4)cc3c(=O)c2c1 [Compound 1, N-[(2R)-1,4-dioxan-2-ylmethyl]-N-methyl-N′-[3-(1-methyl-1H-pyrazol-4-yl)-5-oxo-5H-benzo[4,5]cyclohepta[1,2-b]pyridin-7-yl]sulfamide]

Reference: patent US7893081B2, “Tyrosine kinase inhibitors” (Merck & Co., Inc., priority 2007, dated 2011)
